# Measured values published in patent US7173129B2, “Sulfonamide-substituted chalcone derivatives and their use to treat diseases” (Athero Genics, Inc., priority 2003, dated 2007).
# Structures can show the parent of a compound that is named as a salt.
# Legend:
# VCAM-1 = assay: In Vitro VCAM-1 Assay (TNF-α stimulated endothelial cells, cell-surface ELISA); format: cell-based; details: primary human aortic (HAEC) or pulmonary (HPAEC) endothelial cells, TNF-α 1 ng/ml, approximately 16 hours, ELISA OD 450 nm
# Method: Cell Culture and compound dosing: Cultured primary human aortic (HAEC) or pulmonary (HPAEC) endothelial cells were obtained from Clonetics, Inc., and were used below passage 9. Cells were seeded in 96 well plates such that they would reach 90–95% confluency by the following day. On the following day the cells were stimulated with TNF-α (1 ng/ml) in the presence or absence of compounds dissolved in DMSO such that the final concentration of DMSO is 0.25% or less. To establish a dose curve for each compound, four concentrations in 2- to 5-fold increments were used. Cells were exposed to TNF-α and compounds for approximately 16 hours. The next day the cells were examined under microscope to score for visual signs of toxicity or cell stress.
# Following 16 hr exposure to TNF-α and compound the media was discarded and the cells were washed once with Hanks Balanced Salt Solution (HBSS)/Phosphate buffered saline (PBS) (1:1). Primary antibodies against VCAM-1 (0.25 μg/ml in HBSS/PBS+5% FBS) were added and incubated for 30–60 minutes at 37° C. Cells were washed with HBSS/PBS three times, and secondary antibody Horse Radish Peroxidase (HRP)-conjugated goat anti-mouse IgG (1:500 in HBSS/PBS+5% FBS) were added and incubated for 30 minutes at 37° C. Cells were washed with HBSS/PBS four time and TMB substrate were added and incubated at room temperature in the dark until there was adequate development of blue color. The length of time of incubation was typically 5–15 minutes. 2N sulfuric acid was added to stop the color development and the data was collected by reading the absorbance on a BioRad ELISA plate reader at OD 450 nm. The results are expressed as IC50 values (the concentration (micromolar) of compound required to inhibit 50% of the maximal response of the control sample stimulated by TNF-α only).
# [1] = Homo sapiens, Endothelial cell, 16 h
SMILES,melting point,IC50 (VCAM-1; [1]) [µM],IC50 (VCAM-1) [µM]
"COc1cc(OC)c(-c2cccs2)cc1/C=C/C(=O)c1ccc(S(=O)(=O)Nc2cc(C)on2)cc1 (as salt: sodium) [Example 2, 4-[3E-(2,4-Dimethoxy-5-thien-2-ylphenyl)acryloyl]-N-(5-methylisoxazol-3-yl)benzenesulfonamide sodium salt]",> 260 °C,–,–
"COc1cc(OC)c(-c2cccs2)cc1/C=C/C(=O)c1ccc(S(=O)(=O)Nc2cc(C)on2)cc1 [Example 1, 4-[3E-(2,4-Dimethoxy-5-thien-2-yl-phenyl)acryloyl]-N-(5-methylisoxazol-3-yl)benzenesulfonamide]",202 to 203 °C,< 5,–
"COc1cc(OC)c(-c2cccs2)cc1/C=C/C(=O)c1ccc(S(=O)(=O)Nc2ncccn2)cc1 [Example 3, 4-[3E-(2,4-Dimethoxy-5-thien-2-ylphenyl)acryloyl]-N-pyrimidin-2-ylbenzenesulfonamide]",215 °C (dec.),< 5,–
"COc1cc(OC)c(-c2cccs2)cc1/C=C/C(=O)c1ccc(S(=O)(=O)Nc2nnn[nH]2)cc1 [Example 4, 4-[3E-(2,4-Dimethoxy-5-thien-2-ylphenyl)acryloyl]-N-(1-H-tetrazol-5-yl)benzenesulfonamide]",–,–,> 10
"COc1cc(OC)c(-c2cccs2)cc1/C=C/C(=O)c1ccc(S(=O)(=O)Nc2ccccn2)cc1 [Example 5, 4-[3E-(2,4-Dimethoxy-5-thien-2-ylphenyl)acryloyl]-N-pyridin-2-ylbenzenesulfonamide]",141 to 143 °C,< 5,–
"COc1cc(OC)c(-c2cccs2)cc1/C=C/C(=O)c1ccc(S(=O)(=O)Nc2cc[nH]n2)cc1 [Example 6, 4-[3E-(2,4-Dimethoxy-5-thien-2-ylphenyl)acryloyl]-N-(1H-pyrazol-3-yl)benzenesulfonamide]",142 to 145 °C,< 5,–
COc1cc(OC)c(-c2cccs2)cc1/C=C/C(=O)c1ccc(S(=O)(=O)Nc2cc(C)no2)cc1 [Example 9],–,–,< 10
"COc1cc(OC)c(-c2cc3ccccc3n2C)cc1/C=C/C(=O)c1ccc(S(=O)(=O)NCc2cccnc2)cc1 [Example 17, 4-{3E-[2,4-Dimethoxy-5-(1-methyl-1H-indol-2-yl)phenyl]acryloyl}-N-pyridin-3-ylmethy-benzenesulfonamide]",–,–,< 10
"COc1cc(OC)c(-c2cccs2)cc1/C=C/C(=O)c1ccc(S(=O)(=O)N2CCN(C)CC2)cc1 [Example 21, 3E-(2,4-Dimethoxy-5-thien-2-ylphenyl)-1-[4-(4-methylpiperazine-1-sulfonyl)phenyl]propenone]",–,–,< 10
"CCOC(=O)[N-]S(=O)(=O)c1ccc(C(=O)/C=C/c2cc(-c3cc4ccccc4[nH]3)c(OC)cc2OC)cc1.[K+] [Example 40, N-Ethoxycarbonyl-4-{3E-[5-(1H-indol-2-yl)-2,4-dimethoxyphenyl]acryloyl}benzenesulfonamide potassium salt]",220 to 222 °C,–,–
"CCOC(=O)NS(=O)(=O)c1ccc(C(=O)/C=C/c2cc(-c3cc4ccccc4[nH]3)c(OC)cc2OC)cc1 [Example 41, N-Ethoxycarbonyl-4-{3E-[5-(1H-indol-2-yl)-2,4-dimethoxyphenyl]acryloyl}benzenesulfonamide]",–,< 5,–

# More lines, main results first:
melting point,IC50 (VCAM-1; [1]) [µM],SMILES,IC50 (VCAM-1) [µM]
202 to 206 °C,–,"COc1cc(OC)c(-c2cc3ccccc3n2C)cc1/C=C/C(=O)c1ccc(S(=O)(=O)Nc2cc(C)on2)cc1 (as salt: sodium) [Example 16, 4-{3E-[2,4-Dimethoxy-5-(1-methyl-1H-indol-2-yl)phenyl]acryloyl}-N-(5-methylisoxazol-3-yl)benzenesulfonamide sodium salt]",–
160 to 170 °C,–,"COc1cc(OC)c(-c2cccs2)cc1/C=C/C(=O)c1ccc(S(=O)(=O)NCC(F)(F)F)cc1 (as salt: sodium) [Example 25, 4-[3E-(2,4-Dimethoxy-5-thien-2-ylphenyl)acryloyl]-N-(2,2,2-trifluoroethyl)benzenesulfonamide sodium salt]",–
198 to 199 °C,< 5,"COc1cc(OC)c(-c2cccs2)cc1/C=C/C(=O)c1ccc(S(=O)(=O)Nc2ccon2)cc1 [Example 7, 4-[3E-(2,4-Dimethoxy-5-thien-2-ylphenyl)acryloyl]-N-isoxazol-3-ylbenzenesulfonamide]",–
220 to 221 °C,< 5,"COc1cc(OC)c(-c2cccs2)cc1/C=C/C(=O)c1ccc(S(=O)(=O)Nc2nccs2)cc1 [Example 8, 4-[3E-(2,4-Dimethoxy-5-thien-2-ylphenyl)acryloyl]-N-thiazol-2-ylbenzenesulfonamide]",–
228 to 229 °C,< 10,"COc1cc(OC)c(-c2cccs2)cc1/C=C/C(=O)c1ccc(S(=O)(=O)Nc2ccc(Cl)cn2)cc1 [Example 10, N-(5—Chloropyridin-2-yl)-4-[3E-(2,4-dimethoxy-5-thien-2-ylphenyl)acryloyl]benzenesulfonamide]",–
194 to 195 °C,< 5,"COc1cc(OC)c(-c2cccs2)cc1/C=C/C(=O)c1ccc(S(=O)(=O)Nc2ccc(F)cn2)cc1 [Example 11, 4-[3E-(2,4-Dimethoxy-5-thien-2-ylphenyl)acryloyl]-N-(5-fluoropyridin-2-yl)benzenesulfonamide]",–
228 to 229 °C,< 10,"COc1cc(OC)c(-c2cccs2)cc1/C=C/C(=O)c1ccc(S(=O)(=O)Nc2ccc(C(F)(F)F)cn2)cc1 [Example 12, 4-[3E-(2,4-Dimethoxy-5-thien-2-ylphenyl)acryloyl]-N-(5-trifluoromethylpyridin-2-yl)benzenesulfonamide]",–
165 to 166 °C,> 10,"COc1cc(OCC(CO)CO)c(/C=C/C(=O)c2ccc(S(=O)(=O)Nc3cc(C)on3)cc2)cc1-c1cccs1 [Example 13, 4-{3E-[2-(3-Hydroxy-2-hydroxymethylpropoxy)-4-methoxy-5-thien-2-ylphenyl]acryloyl}-N-(5-methylisoxazol-3-yl)benzenesulfonamide]",–
> 260 °C,< 5,"COc1cc(OCCN2CCOCC2)c(/C=C/C(=O)c2ccc(S(=O)(=O)Nc3cc(C)on3)cc2)cc1-c1cccs1.Cl [Example 14, 4-{3E-[4-Methoxy-2-(2-morpholin-4-yl-ethoxy)-5-thien-2-ylphenyl]acryloyl}-N-(5-methyl-isoxazol-3-yl)benzenesulfonamide hydrochloride]",–
–,< 5,"COc1cc(OC)c(-c2cc3ccccc3n2C)cc1/C=C/C(=O)c1ccc(S(=O)(=O)Nc2cc(C)on2)cc1 [Example 16, 4-{3E-[2,4-Dimethoxy-5-(1-methyl-1H-indol-2-yl)phenyl]acryloyl}-N-(5-methylisoxazol-3-yl)benzenesulfonamide sodium salt]",–
167 to 168 °C,< 10,"COc1cc(OC)c(-c2cc3ccccc3n2C)cc1/C=C/C(=O)c1ccc(S(=O)(=O)NCCN2CCOCC2)cc1 [Example 18, 4-{3E-[2,4-Dimethoxy-5-(1-methyl-1H-indol-2-yl)phenyl]acryloyl}-N-(2-morpholin-4-yl-ethyl)benzenesulfonamide]",–
–,< 10,"COc1cc(OC)c(-c2cccs2)cc1/C=C/C(=O)c1ccc(S(=O)(=O)N2CCCCC2C(=O)O)cc1 (stereo not shown) [Example 28, 1-{4-[3E-(2,4-Dimethoxy-5-thien-2-ylphenyl)acryloyl]benzenesulfonyl}piperidine-2-carboxylic acid]",–
249 to 251 °C (dec.),–,"COc1cc(OC)c(-c2cc3ccccc3[nH]2)cc1/C=C/C(=O)c1ccc(S(=O)(=O)[N-]C(=O)C(C)C)cc1.[Na+] [Example 36, 4-{3E-[5-(1H-Indol-2-yl)-2,4-dimethoxyphenyl]acryloyl}-N-isobutyrylbenzenesulfonamide sodium salt]",–
> 250 °C,–,"CCC(=O)[N-]S(=O)(=O)c1ccc(C(=O)/C=C/c2cc(-c3cc4ccccc4[nH]3)c(OC)cc2OC)cc1.[Na+] [Example 46, 4-{3E-[5-(1H-Indol-2-yl)-2,4-dimethoxyphenyl]acryloyl}-N-propionylbenzenesulfonamide sodium salt]",–
–,< 5,"CCCC(=O)NS(=O)(=O)c1ccc(C(=O)/C=C/c2cc(-c3cc4ccccc4[nH]3)c(OC)cc2OC)cc1 [Example 47, N-Butyryl-4-{3E-[5-(1H-indol-2-yl)-2,4-dimethoxyphenyl]acryl}benzenesulfonamide]",–
–,< 5,"CCCC(=O)NS(=O)(=O)c1ccc(C(=O)/C=C/c2cc(N3CCCC3)c(OC)cc2OC)cc1 [Example 48, N-Butyryl-4-[3E-(2,4-dimethoxy-5-pyrrolidin-1-ylphenyl)acryloyl]benzenesulfonamide]",–
191 to 193 °C,–,"CCCC(=O)[N-]S(=O)(=O)c1ccc(C(=O)/C=C/c2cc(-c3cc4ccccc4[nH]3)c(OC)cc2OC)cc1.[Na+] [Example 49, N-Butyryl-4-{3E-[5-(1H-indol-2-yl)-2,4-dimethoxyphenyl]acryloyl}benzenesulfonamide sodium salt]",–
